These results are taken from US20240189279A1, “IMMUNOMODULATORY COMPOSITIONS AND METHODS OF USE THEREOF” (THE TEXAS A&M UNIVERSITY SYSTEM, priority 2022, published 2024).

Entries after “also recorded” stand apart in the source; their conditions may differ.

Assay [1] deals with endotoxin-treated murine bone marrow derived macrophages. Put plainly: Cytokine expression in endotoxin-treated bone marrow derived macrophages. Type of assay: cell-based.
Assay [2] has as its system inflammatory cytokines in liver tissue. Put plainly: Liver cytokine measurements (bead-based 13-cytokine panel) in WD mice. In kind it is in vivo, mice (male B6 129SF1/J). Conditions: week 16. The text has this: Animal experiments. Male B6 129SF1/J mice at 6 weeks of age were obtained from Jackson Laboratories (Bar Harbor, ME). Mice were acclimatized to the animal facility for one week. At the start of the experiment, mice were randomly divided into four groups (n=10 for each group). Three of the four groups were fed ad libitum a Western diet (WD) with 40% Kcal from fat and containing 0.15% cholesterol (D12079B, Research Diets) and a sugar water (SW) solution (23.1 g/L d-fructose+18.9 g/L d-glucose) as previously described (DIAMOND model (15)). After 8 weeks, the three groups of WD-fed mice were randomly selected for treatment with vehicle (WD group) or low (WD-50 group) or high dose (WD-100 group) of […]. The WD group was fed WD and drank sugar water. The WD-50 and WD-100 groups were fed WD and drank sugar water containing, respectively, 50 or 100 mg […] per kg body weight. The treatments were continued for another 8 weeks. Water bottles containing SW and […] or only SW were changed every other day. […] The supernatant was transferred into a new tube and the total protein concentration was measured with the BCA protein assay (Thermo Fisher Scientific, Waltham, MA). A panel of 13 cytokines was quantified with a bead-based ELISA kit (BioLegend, San Diego, CA) following the manufacturer's protocol. […]

In a further assay the test system is AMPK. Put plainly: AMPK Western blot analysis of liver tissue of WD mice. Type of assay: in vivo, mice (male B6 129SF1/J). Conditions: week 16; dose-dependent, reverses WD-induced downregulation. The text has this: Animal experiments. Male B6 129SF1/J mice at 6 weeks of age were obtained from Jackson Laboratories (Bar Harbor, ME). Mice were acclimatized to the animal facility for one week. At the start of the experiment, mice were randomly divided into four groups (n=10 for each group). Three of the four groups were fed ad libitum a Western diet (WD) with 40% Kcal from fat and containing 0.15% cholesterol (D12079B, Research Diets) and a sugar water (SW) solution (23.1 g/L d-fructose+18.9 g/L d-glucose) as previously described (DIAMOND model (15)). After 8 weeks, the three groups of WD-fed mice were randomly selected for treatment with vehicle (WD group) or low (WD-50 group) or high dose (WD-100 group) of […]. The WD group was fed WD and drank sugar water. The WD-50 and WD-100 groups were fed WD and drank sugar water containing, respectively, 50 or 100 mg […] per kg body weight. The treatments were continued for another 8 weeks. Water bottles containing SW and […] or only SW were changed every other day. […] The protein concentration was determined using the BCA protein assay kit (Pierce). […] Proteins were quantified by normalizing the intensity of the protein band of interest to the intensity of the j-actin band in the same lane using the Image Lab software (Bio-Rad, Hercules, CA).
(In general: In western blotting, separated proteins are transferred to a membrane and probed.)

Assay [3] relates to palmitate and LPS stimulated macrophages. In words: Cytokine production in palmitate and LPS stimulated macrophages. In kind it is cell-based.

As to `O=C([O-])Cc1c[nH]c2ccccc12.[Na+]` [I3A, Indole-3-acetate sodium salt], the “expression of IL-1, TNF-α, and MCP-1” value in assay [1] was “dose-dependently downregulate the expression of IL-1, TNF-α, and MCP-1”. For the same compound, the “liver IL-10” value in assay [2] (I3A treated vs WD) is given as “downregulated this cytokine”. In addition, in assay [2] (WD-50 and WD-100 vs WD, sodium salt), the “expression of pro-inflammatory cytokines in liver (panel, TNFα, IL-6, Mcp-1 etc.)” value is “dose-dependently attenuated the production of type 1, 2 and 3 cytokines; also recorded: reduced the expression of these cytokines in a dose-dependent manner”. Also, the “liver AMPK and p-AMPK levels” value in the assay with AMPK was “increased both AMPK as well as p-AMPK”. Moreover, in assay [3], the “production of TNF-α, IL-1β, and MCP-1” value is “dose-dependently attenuated the production of TNF-α, IL-1β, and MCP-1”.
